Experiments:
[1] = Hydroxyapatite challenge of Ba-L complexes (GFAAS); assay type: physicochemical; details: HAP suspension, pH 7.6, after 20 h
Procedure: HAP was suspended in solutions containing the complexes formed in situ (1.1 equiv L, 1.0 equiv Ba^2+) in pH 7.6 buffer, and the amount of Ba^2+ remaining in the liquid phase, reflecting intact Ba-L complex, was determined by graphite furnace atomic absorption spectroscopy (GFAAS). Whereas free Ba^2+ is adsorbed by HAP in less than 10 min, Ba-macropa and Ba-macropaquin respectively retained 82% and 68% of this ion after 20 h. […] This feature may be important for Ba^2+ chelation in industrial applications, such as scale dissolution, because numerous other metal ions are present during these processes. […]
More specifically, hydroxyapatite (HAP, Ca5(PO4)3(OH)) challenges were carried out in 500 mM Tris buffer. […] The concentrations of these stocks were verified by quantitative NMR (n=2 for each ligand) using two independently prepared standards of potassium hydrogen phthalate in D2O. […] The concentration of macroquin-SO3 was determined by UV-vis spectrophotometry from the average of two titrations with Ba^2+. […] The absorbance at 320 nm was monitored until spectral changes ceased, at which point [Ba^2+]=[L]. From the volume of titrant added, the concentration of the stock solution of macroquin-SO3 was calculated to be 8.17 mM, which was within 9% of the theoretical value of 8.96 mM based on mass. […]

[2] = CRC Handbook; cited from earlier work

Row | Structure (SMILES) | Ba^2+ remaining in the liquid phase (intact Ba-L complex) [1] [%] | Ksp [2]
1 | O=C([O-])c1cccc(CN2CCOCCOCCN(Cc3cccc(C(=O)[O-])n3)CCOCCOCC2)n1.[Ba+2] [Ba-macropa] | 82 | 
2 | O=S(=O)([O-])[O-].[Ba+2] [BaSO4] |  | 1.08×10^−10

— patent publication US11708283B2, “Metal-chelating compositions and their use in methods of removing or inhibiting barium scale” (CORNELL UNIVERSITY, priority 2018, dated 2023)
